# Reference: BigSolDB 2.1
# Conditions: in DMF
Compound,solubility (mole fraction) (303.2 K),solubility (mole fraction) (313.2 K),solubility (mole fraction) (323.2 K),solubility (mole fraction) (333.2 K),solubility (mole fraction) (343.2 K),solubility (mole fraction) (353.2 K)
C1=Cc2nc1c(-c1ccccc1)c1ccc([nH]1)c(-c1ccccc1)c1nc(c(-c3ccccc3)c3ccc([nH]3)c2-c2ccccc2)C=C1,9.76e-05,0.000107,0.00012,0.000136,0.000166,–
Clc1ccc(-c2c3nc(c(-c4ccc(Cl)cc4)c4ccc([nH]4)c(-c4ccc(Cl)cc4)c4nc(c(-c5ccc(Cl)cc5)c5ccc2[nH]5)C=C4)C=C3)cc1,2.64e-05,3.51e-05,4.56e-05,6.16e-05,8.67e-05,0.000122
